Experiment [1] deals with HAP1 MTAP-deleted cell line. Put plainly: SDMA in-cell western assay, HAP1 MTAP-deleted. Format: cell-based. To be noted: for IC50: Homo sapiens, HAP1, SDMA in-cell western, HAP1 MTAP-deleted; for MTAP intact/deleted ratio: IC50 ratio HAP1 MTAP-intact / HAP1 MTAP-deleted, SDMA in-cell western. Put shortly:
(§1)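 IC50 values come from SDMA signal quantified by in-cell western in two HAP1 lines, one with native MTAP levels and one lacking MTAP.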

Experiment [2] addresses T1, PRMT5 (Homo sapiens, UniProt O14744).
T1 construct: purchased Viva (custom protein)
Put plainly: PRMT5 biochemical IC50 assay with MTA as cofactor. To be noted: PRMT5, MTA as cofactor; read-out: MTA IC50.

Experiment [3] addresses T1, PRMT5. Nature of the experiment: PRMT5 biochemical IC50 assay with no cofactor. To be noted: PRMT5, no cofactor. An excerpt: Table 1 indicates IC50 values (μM) against PRMT5 for exemplary compounds in the presence of SAM as cofactor, with no cofactor, and with MTA as cofactor, respectively (columns 4-6). […] Ki values can be calculated from the IC50 values as described in the Examples section. As detailed in the Examples section, for the assay performed in the presence of SAM, IC50=Ki×1.5 (Ki=IC50/1.5).

In experiment [4] the test system is HAP1 MTAP-deleted cell line. Nature of the experiment: Viability assay, MTAP-deleted cell line. Format: cell-based. To be noted: Homo sapiens, HAP1, viability assay, MTAP-deleted cell line; read-out: HAP1 MTAP deleted viability. An excerpt: Table 1 additionally indicates IC50 values in a viability assay for the MTAP-deleted cell line (column 10), indicating the effect of treatment with compound on cell survival.

For experiment [5], the system named is HAP1 MTAP-intact cell line. Put plainly: SDMA in-cell western assay, HAP1 MTAP-intact. The format is cell-based. To be noted: Homo sapiens, HAP1, SDMA in-cell western, HAP1 MTAP-intact; read-out: MTAP HAP1 intact IC50. The essentials:
as §1

For experiment [6], the target named is T1, PRMT5. Put plainly: PRMT5 biochemical IC50 assay with SAM as cofactor. To be noted: PRMT5, SAM as cofactor; read-out: SAM IC50.
The mark [7] stands for this setting: read-out: HAP1 MTAP deleted IC50.

This note sets out measurements from patent US11999727B2 (Tango Therapeutics, Inc., priority 2020, dated 2024).

Bounds are passed on as bounds.

T1 sequence (O14744 whole entry): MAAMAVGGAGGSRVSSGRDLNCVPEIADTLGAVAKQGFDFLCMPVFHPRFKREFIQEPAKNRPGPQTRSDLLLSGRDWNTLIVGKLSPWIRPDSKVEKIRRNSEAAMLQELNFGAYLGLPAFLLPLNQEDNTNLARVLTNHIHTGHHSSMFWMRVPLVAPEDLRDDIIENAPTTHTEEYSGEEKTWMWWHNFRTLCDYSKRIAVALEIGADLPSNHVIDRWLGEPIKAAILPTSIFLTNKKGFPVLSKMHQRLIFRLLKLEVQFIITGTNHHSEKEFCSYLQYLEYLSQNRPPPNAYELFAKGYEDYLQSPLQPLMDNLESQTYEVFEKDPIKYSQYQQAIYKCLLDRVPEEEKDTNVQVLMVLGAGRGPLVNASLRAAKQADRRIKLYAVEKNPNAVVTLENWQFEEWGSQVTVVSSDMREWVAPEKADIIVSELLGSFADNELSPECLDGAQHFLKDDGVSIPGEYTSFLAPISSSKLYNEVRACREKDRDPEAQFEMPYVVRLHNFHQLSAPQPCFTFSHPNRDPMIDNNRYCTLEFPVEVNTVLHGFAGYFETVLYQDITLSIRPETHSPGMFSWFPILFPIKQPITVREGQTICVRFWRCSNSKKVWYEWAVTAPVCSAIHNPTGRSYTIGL
T1 sequence (Q9BQA1 whole entry partner): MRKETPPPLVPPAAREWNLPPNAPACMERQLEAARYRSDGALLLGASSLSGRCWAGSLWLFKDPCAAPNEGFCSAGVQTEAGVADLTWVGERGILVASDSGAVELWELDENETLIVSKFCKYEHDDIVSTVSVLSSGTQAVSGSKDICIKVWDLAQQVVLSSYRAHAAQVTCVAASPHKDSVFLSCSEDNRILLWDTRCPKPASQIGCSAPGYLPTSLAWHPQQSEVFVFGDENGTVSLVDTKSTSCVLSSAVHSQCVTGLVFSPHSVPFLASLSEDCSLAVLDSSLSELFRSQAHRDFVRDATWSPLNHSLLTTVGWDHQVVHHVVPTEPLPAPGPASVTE

As for `Cc1cc([C@@H]2CC[C@@H](C)CN2C(=O)C(=O)Nc2cncc(C(N)=O)c2)ccc1Cl` (racemic) [Compound 173, rac-5-{2-[(2R,5S)-2-(4-Chloro-3-methylphenyl)-5-methylpiperidin-1-yl]-2-oxoacetamido}pyridine-3-carboxamide], the IC50 in experiment [1] (read-out: HAP 1 MTAP deleted IC50) is under 100 nM; in experiment [2], under 50 nM; in experiment [3] (read-out: No Cofactor/ rel IC50), 50 to 500 nM; in experiment [4], 1000 to 10000 nM; in experiment [5] it was over 1000 nM; in experiment [6], 50 to 500 nM. For the same molecule, in experiment [1], the “MTAP intact/deleted ratio” value is “A (an IC50 ratio greater than or equal to 10 fold)”.

As for `C[C@@H]1CC[C@@H](c2cccc(Cl)c2)N(C(=O)C(=O)Nc2cncc(C(N)=O)c2)C1` (racemic) [Compound 174, rac-5-{2-[(2R,5S)-2-(3-Chlorophenyl)-5-methylpiperidin-1-yl]-2-oxoacetamido}pyridine-3-carboxamide], the IC50 in experiment [1] (setting [7]) is under 100 nM; in experiment [2] it was under 50 nM; in experiment [3] (read-out: No Cofactor/rel IC50), 50 to 500 nM; in experiment [4], 1000 to 10000 nM; in experiment [5], over 1000 nM; in experiment [6] it was 50 to 500 nM. For the same molecule, in experiment [1], the MTAP intact/deleted ratio entry is listed as “A (an IC50 ratio greater than or equal to 10 fold)”.

As for `Cc1cc(NC(=O)C(=O)N2C[C@H](C)CC[C@@H]2C2CCCCC2)cnc1N` (racemic) [Compound 175, N-(6-amino-5-methyl-3-pyridyl)-2-[(2R,5R)-2-cyclohexyl-5-methyl-1-piperidyl]-2-oxo-acetamide], the IC50 in experiment [1] (setting [7]) was over 1000 nM; in experiment [2], 50 to 500 nM; in experiment [3] (read-out: No Cofactor/rel IC50), over 500 nM; in experiment [4], over 10000 nM; in experiment [5], over 1000 nM; in experiment [6], over 500 nM. The MTAP intact/deleted ratio entry in experiment [1] is “B (an IC50 ratio greater than or equal to 3 fold but lower than 10 fold)”.

For the molecule `CC(C)[C@@H]1CC[C@@H](C)CN1C(=O)C(=O)Nc1cncc(C(N)=O)c1` (racemic) [Compound 176, 5-[[2-[(2S,5R)-2-isopropyl-5-methyl-1-piperidyl]-2-oxo-acetyl]amino]pyridine-3-carboxamide], the IC50 in experiment [1] (setting [7]) is 100 to 1000 nM; in experiment [2] it was under 50 nM; in experiment [3] (read-out: No Cofactor/rel IC50), 50 to 500 nM; in experiment [4] it was over 10000 nM; in experiment [5], over 1000 nM; in experiment [6] it was 50 to 500 nM. The MTAP intact/deleted ratio entry in experiment [1] is “A (an IC50 ratio greater than or equal to 10 fold)”.

Take `Cc1cc(NC(=O)C(=O)N2C[C@H](C(F)(F)F)CC[C@H]2c2ccccc2)cnc1N` (racemic) [Compound 177, rac-N-(6-amino-5-methylpyridin-3-yl)-2-oxo-2-((2R,5S)-2-phenyl-5-(trifluoromethyl)piperidin-1-yl)acetamide]: the IC50 in experiment [1] (setting [7]) was over 1000 nM; in experiment [2], 50 to 500 nM; in experiment [3] (read-out: No Cofactor/rel IC50) it was 50 to 500 nM; in experiment [4] it was over 10000 nM; in experiment [5], over 1000 nM; in experiment [6], 50 to 500 nM. Further, in experiment [1], the MTAP intact/deleted ratio result was “B (an IC50 ratio greater than or equal to 3 fold but lower than 10 fold)”.

Consider `Cc1ccc([C@@H]2CC[C@@H](C)CN2C(=O)C(=O)Nc2cncc(C(N)=O)c2)cc1Cl` (racemic) [Compound 179, rac-5-{2-[(2R,5S)-2-(3-Chloro-4-methylphenyl)-5-methylpiperidin-1-yl]-2-oxoacetamido}pyridine-3-carboxamide], for which the IC50 in experiment [1] (setting [7]) was under 100 nM; in experiment [2], under 50 nM; in experiment [3] (read-out: No Cofactor/rel IC50), 50 to 500 nM; in experiment [4] it was 1000 to 10000 nM; in experiment [5] it was over 1000 nM; in experiment [6], 50 to 500 nM. The MTAP intact/deleted ratio result in experiment [1] was “A (an IC50 ratio greater than or equal to 10 fold)”.

For the molecule `Cc1ccc([C@@H]2CC[C@@H](C)CN2C(=O)C(=O)Nc2cncc(C(N)=O)c2)cc1C` (racemic) [Compound 180, rac-5-{2-[(2R,5S)-2-(3,4-Dimethylphenyl)-5-methylpiperidin-1-yl]-2-oxoacetamido}pyridine-3-carboxamide], the IC50 in experiment [1] (setting [7]) is 100 to 1000 nM; in experiment [2], under 50 nM; in experiment [3] (read-out: No Cofactor/rel IC50), 50 to 500 nM; in experiment [4] it was 1000 to 10000 nM; in experiment [5], over 1000 nM; in experiment [6] it was 50 to 500 nM. For the same molecule, the MTAP intact/deleted ratio result in experiment [1] is “A (an IC50 ratio greater than or equal to 10 fold)”.

Consider `C[C@@H]1CC[C@@H](c2ccccc2)N(C(=O)C(=O)Nc2cncc(C(N)=O)c2)[C@H]1C` (racemic) [Compound 181, rac-5-[[2-[(2S,3R,6S)-2,3-dimethyl-6-phenyl-1-piperidyl]-2-oxo-acetyl]amino]pyridine-3-carboxamide], for which the IC50 in experiment [1] (setting [7]) was 100 to 1000 nM; in experiment [2], under 50 nM; in experiment [3] (read-out: No Cofactor/rel IC50), 50 to 500 nM; in experiment [4] it was 1000 to 10000 nM; in experiment [5], over 1000 nM; in experiment [6] it was 50 to 500 nM. Further, the MTAP intact/deleted ratio entry in experiment [1] is “A (an IC50 ratio greater than or equal to 10 fold)”.

Consider `NC(=O)c1cncc(NC(=O)C(=O)N2CC[C@@H](O)C[C@H]2c2ccccc2)c1` (racemic) [Compound 185, 5-(2-(4-hydroxy-2-phenylpiperidin-1-yl)-2-oxoacetamido)nicotinamide], for which the IC50 in experiment [1] (setting [7]) was over 1000 nM; in experiment [2] it was 50 to 500 nM; in experiment [3] (read-out: No Cofactor/rel IC50), over 500 nM; in experiment [4] it was over 10000 nM; in experiment [5] it was over 1000 nM; in experiment [6], 50 to 500 nM. Further, the MTAP intact/deleted ratio result in experiment [1] is listed as “C (an IC50 ratio of less than 3 fold)”.

Regarding `Cc1cc(NC(=O)C(=O)N2C[C@@H](C)CC[C@@H]2c2cccc(O)c2)cnc1N` (racemic) [Compound 187, rac-N-(6-amino-5-methylpyridin-3-yl)-2-((2R,5S)-2-(3-hydroxyphenyl)-5-methylpiperidin-1-yl)-2-oxoacetamide], the IC50 is under 100 nM in experiment [1] (setting [7]); under 50 nM in experiment [2]; 50 to 500 nM in experiment [3] (read-out: No Cofactor/rel IC50); 1000 to 10000 nM in experiment [4]; 100 to 1000 nM in experiment [5]; 50 to 500 nM in experiment [6]. In experiment [1], the MTAP intact/deleted ratio result is given as “A (an IC50 ratio greater than or equal to 10 fold)”.

Turning to `Cc1cc(NC(=O)C(=O)N2C[C@H](C)CC[C@H]2C2CCCC2)cnc1N` (racemic) [Compound 190, N-(6-amino-5-methyl-3-pyridyl)-2-[(2S,5R)-2-cyclopentyl-5-methyl-1-piperidyl]-2-oxo-acetamide], the IC50 was 100 to 1000 nM in experiment [1] (setting [7]); under 50 nM in experiment [2]; 50 to 500 nM in experiment [3] (read-out: No Cofactor/rel IC50); 1000 to 10000 nM in experiment [4]; over 1000 nM in experiment [5]; 50 to 500 nM in experiment [6]. In experiment [1], the MTAP intact/deleted ratio entry is “B (an IC50 ratio greater than or equal to 3 fold but lower than 10 fold)”.

For the molecule `C[C@@H]1CC[C@@H](c2cc(Cl)cc(Cl)c2)N(C(=O)C(=O)Nc2cncc(C(N)=O)c2)C1` (racemic) [Compound 206, rac-5-{2-[(2R,5S)-2-(3,5-Dichlorophenyl)-5-methylpiperidin-1-yl]-2-oxoacetamido}pyridine-3-carboxamide], the IC50 in experiment [1] (setting [7]) was 100 to 1000 nM; in experiment [2] it was under 50 nM; in experiment [3] (read-out: No Cofactor/rel IC50), 50 to 500 nM; in experiment [4] it was 1000 to 10000 nM; in experiment [5] it was over 1000 nM; in experiment [6], 50 to 500 nM. Further, in experiment [1], the MTAP intact/deleted ratio entry was “A (an IC50 ratio greater than or equal to 10 fold)”.

Regarding `C[C@@H]1CC[C@@H](c2ccc(N3CCCC3)nc2)N(C(=O)C(=O)Nc2cncc(C(N)=O)c2)C1` (racemic) [Compound 207, rac-5-{2-[(2R,5S)-5-methyl-2-[6-(pyrrolidin-1-yl)pyridin-3-yl]piperidin-1-yl]-2-oxoacetamido}pyridine-3-carboxamide], the IC50 was 100 to 1000 nM in experiment [1] (setting [7]); 50 to 500 nM in experiment [2]; 50 to 500 nM in experiment [3] (read-out: No Cofactor/rel IC50); 1000 to 10000 nM in experiment [4]; over 1000 nM in experiment [5]; over 500 nM in experiment [6]. Further, in experiment [1], the MTAP intact/deleted ratio entry was “A (an IC50 ratio greater than or equal to 10 fold)”.

For the molecule `COc1ccc([C@@H]2CC[C@@H](C)CN2C(=O)C(=O)Nc2cncc(C(N)=O)c2)cc1F` (racemic) [Compound 208, rac-5-{2-[(2R,5S)-2-(3-Fluoro-4-methoxyphenyl)-5-methylpiperidin-1-yl]-2-oxoacetamido}pyridine-3-carboxamide], the IC50 was 100 to 1000 nM in experiment [1] (setting [7]); under 50 nM in experiment [2]; 50 to 500 nM in experiment [3] (read-out: No Cofactor/rel IC50); 1000 to 10000 nM in experiment [4]; over 1000 nM in experiment [5]; 50 to 500 nM in experiment [6]. Moreover, in experiment [1], the MTAP intact/deleted ratio entry was “A (an IC50 ratio greater than or equal to 10 fold)”.
